Source: publication PMC3183320 (Protein expression and purification, 2011)
Entries after “also recorded” stand apart in the source; their conditions may differ.

Columns and labels:
[1] = target: T1, BPV1 E6 (Bovine papillomavirus type 1, UniProt P06931); type: physicochemical; settings: peptide provided during BPV1 E6 biosynthesis
[2] = target: T1, BPV1 E6; test: SPR; type: binding
[3] = target: HPV16 E6; settings: read-out: affinity of HPV16 E6 / E6AP; ref [29]; cited from earlier work
[4] = target: T2, BPV1 E6 released from MBP-LXXLL-tevs-E6 by TEV protease (Bovine Papillomavirus Type 1, UniProt P06931 1-137); test: SEC
T2 sequence: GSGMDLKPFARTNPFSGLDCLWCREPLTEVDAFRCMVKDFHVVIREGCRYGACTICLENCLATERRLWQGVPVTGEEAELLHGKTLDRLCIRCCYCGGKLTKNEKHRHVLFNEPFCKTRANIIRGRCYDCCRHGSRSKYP

[5] = target: T3, paxillin LXXLL peptide (Homo sapiens, UniProt P49023); test: SPR
T3 chain: MDDLDALLADLESTT

## EFTMDDLDALLADKE [paxillin LXXLL peptide]
[1]
  effect on BPV1 E6 protein solubility (in words): greatly enhanced the protein’s solubility

## DDLDALLADKE [paxillin]
[2]; SPR sensorgrams, paxillin as compared to E6AP
  dissociation phase (in words): remarkably slow dissociation phase; also recorded: slow dissociation rate kinetics
[2]; SPR, as compared to other E6/peptide interactions
  affinity for BPV1 E6 (in words): significantly higher affinity as compared to other E6/peptide interactions; also recorded: significantly stronger; also recorded: high affinity

## ESSELTLQELLGEER [E6AP]
[3]
  Kd: 4 µM

## EFTMDDLDALLADKE [synthetic peptide derived from paxillin (LXXLL synthetic peptide)]
[4]
  binding result: binds

B1: E6 (protein)
chain: MDLKPFARTNPFSGLDCLWCREPLTEVDAFRCMVKDFHVVIREGCRYGACTICLENCLATERRLWQGVPVTGEEAELLHGKTLDRLCIRCCYCGGKLTKNEKHRHVLFNEPFCKTRANIIRGRCYDCCRHGSRSKYP
[5]
  Kd: 35.1 nM

## MDDLDALLADGGSGSNENLYFQ [MBP-fused LXXLL peptide (MBP-LXXLL-tevs left after TEV digestion of MBP-LXXLL-tevs-E6)]
[4]
  binding result: binds
